# Measurements reported in patent US9302014B2, “Cell-penetrating peptides having a central hydrophobic domain” (Medical Research Council, priority 2011, dated 2016).
# Non-standard residues stand in square brackets, D forms with d. No end group written: not given here. Ahx = NCCCCCC(=O)O; βAla = NCCC(=O)O
# Experiments:
# dystrophin exon 23 = assay: Exon skipping in differentiated mouse H2K mdx myotubes (nested RT-PCR, densitometry); assay type: cell-based; conditions: Example 5, conjugate 0.125 to 2.0 μM, no transfection agent
# Method: The exon skipping potential of Pip6-PMO conjugates was evaluated in differentiated mouse H2K mdx myotubes in the absence of any transfection agent (FIG. 1) at concentrations ranging from 0.125 μM to 1 μM. […] In the case of Pip6 sequences, the flanking arginine-rich sequences are identical (with the exception of Pip6e, which is identical except for one arginine immediately preceding the core which is displaced into the second position of the core). […] Note that we have previously shown that major changes in in vitro exon skipping activities are correlated instead with the total numbers of arginine residues [Saleh, A. F., et al., Synthesis and splice-redirecting activity of branched, arginine-rich peptide dendrimer conjugates of peptide nucleic acid oligonucleotides. Bioconjug Chem, 2010. 21(10): p. 1902-11.].
# H2K mdx myotubes are derived from H2K mdx myoblasts obtained from the EDL muscle of a male H2K mdx f2 mouse. The cells are dystrophin deficient and conditionally immortal due to thermolabile simian virus 40 large tumor antigen (tsA58) expression. The myoblasts proliferate at 33° C. (10% CO2) in rich culture and differentiate into myotubes at 37° C. in media with horse serum.
# H2K mdx myotubes were prepared and incubated with peptide-PNA and peptide-PMO conjugates in the absence of any transfection agent by the methods described previously (Wang, Q, Yin, H, et aL (2010) In vitro evaluation of novel antisense oligonucleotides is predictive of in vivo exon skipping activity for Duchenne muscular dystrophy) but with minor variations.
# Myotubes were obtained from confluent H2K mdx cells seeded in gelatine coated 24-well plates following 2 days of serum deprivation (DMEM with 5% horse serum). The conjugates were incubated with myotubes for 4 h in 0.5 mL OptiMEM and then replaced by 1 mL of DMEM/5% horse serum media for further incubation. After 20 h myotubes were washed twice with PBS and total RNA was extracted with 0.5 mL of TRI Reagent (Sigma, UK). RNA preparations were treated with RNAse free DNAse (2U) and Proteinase K ([…]) prior to RT-PCR analysis. RT-PCR was carried out in 25 μL with 1 μg RNA template using SuperScript III One-Step RTPCR System with Platinum Taq DNA polymerase (Invitrogen) primed by forward primer 5′CAG AAT TCT GCC AAT TGC TGAG3′ [SEQ ID NO:312] and reverse primer 5′TTC TTC AGC TTG TGT CAT CC3′ [SEQ ID NO:313]. The initial cDNA synthesis was performed at 55° C. for 30 min followed by 30 cycles of 95° C. for 30 sec, 55° C. for 1 min and 68° C. for 80 sec. RT PCR product ([…]) was then used as the template for secondary PCR performed in 25 μL with 0.5 U Super TAQ polymerase (HT Biotechnologies) and primed by forward primer 5′CCCAGTCTACCACCCTATCAG AGC3′ [SEQ ID NO:314] and reverse primer 5′CCT GCC TTT AAG GCT TCC TT3′ [SEQ ID NO:315]. The cycling conditions were 95° C. for 1 min, 57° C. for 1 min and 72° C. for 80 sec for 25 cycles. Products were examined by 2% agarose gel and after scanning using Gene Tools Analysis Software (SynGene) the relative amount of exon 23 skipping was expressed as a percentage at a given concentration of conjugates averaged over duplicates of three experiments.
# H2K mdx myotubes were prepared and incubated with peptide-PMO conjugates in the absence of any transfection agent at concentrations of 0.125, 0.25, 0.5 and 1.0 μM by the method described previously [Yin, H., et al., Pip5 transduction peptides direct high efficiency oligonucleotide-mediated dystrophin exon skipping in heart and phenotypic correction in mdx mice. Mol Ther, 2011. 19(7): p. 1295-303.]. The products of nested RT-PCR from total isolated RNA were examined by electrophoresis on a 2% agarose gel. Quantification of Δ23 transcript levels was calculated using densitometry. […]
# dystrophin = assay: In vivo exon skipping and dystrophin production in mdx mice (combined RNA and protein read-outs); conditions: lead PPMO comparison; TA, quadriceps, diaphragm and heart; 8 week old mdx mice, 12.5 mg/kg IV, 2 weeks
# Source text: Given the potency of Pip5e-PMO in heart tissue, the aim of altering the sequence of the hydrophobic core (whilst maintaining the 5-aa length) was to identify peptides that might be more efficient at lower doses. These modifications included inversion of the hydrophobic region (Pip6a), substitution of tyrosine by isoleucine (Pip6b), substitution of glutamine in the Pip6a sequence by displacement of the arginine immediately flanking the core in the first arginine-rich flanking region (Pip6e), and a scrambled hydrophobic core sequence (Pip6f). All Pip6 peptide-PMO conjugates were administered to mdx mice as single 12.5 mg/kg intravenous injections via the tail vein and tissues were harvested 2 weeks later and assessed for activity at both RNA and protein levels. […]
# Immunohistochemical staining (data not shown) was used to visualise the production of dystrophin protein (and its correct re-location at the sarcolemma) and RT-PCR was used to detect exon-skipped products in treated mdx muscle groups. qPCR allows for the quantification of the spliced product and Western blots were used to quantify the amount of dystrophin protein produced in muscles from treated mdx mice as compared with C57BL10 and untreated mdx controls. […]
substance,measurement,setting,value
Pip9d2: Pip9 series peptide (SEQ ID Nos 320-328) conjugated to PMODMD (R[Ahx]RR[βAla]RFQILY[βAla]R[Ahx]R[βAla]; also: conjugated to PMO (PMODMD)),exon skipping activity (Δ23 skipping) in mdx muscle cells,dystrophin exon 23,high exon skipping activity
same,levels of exon-skipped dystrophin RNA and protein,dystrophin,negligible dystrophin production
